Assay results taken from ChEMBL document CHEMBL2203055, “From α4β2 Nicotinic Ligands to the Discovery of σ1 Receptor Ligands: Pharmacophore Analysis and Rational Design” (ACS Med Chem Lett, 2012).

Tests used:
[1] = molecular target: T1, Sodium-dependent dopamine transporter (Homo sapiens, UniProt Q01959); test: Displacement of [3H]WIN35428 from human recombinant DAT after 1.5 hrs by microbeta scintillation counting analysis
[2] = molecular target: T2, Sodium-dependent noradrenaline transporter (Homo sapiens, UniProt P23975); test: Displacement of [3H]nisoxetine from human recombinant NET after 1.5 hrs by microbeta scintillation counting analysis
T2 sequence (P23975 whole entry): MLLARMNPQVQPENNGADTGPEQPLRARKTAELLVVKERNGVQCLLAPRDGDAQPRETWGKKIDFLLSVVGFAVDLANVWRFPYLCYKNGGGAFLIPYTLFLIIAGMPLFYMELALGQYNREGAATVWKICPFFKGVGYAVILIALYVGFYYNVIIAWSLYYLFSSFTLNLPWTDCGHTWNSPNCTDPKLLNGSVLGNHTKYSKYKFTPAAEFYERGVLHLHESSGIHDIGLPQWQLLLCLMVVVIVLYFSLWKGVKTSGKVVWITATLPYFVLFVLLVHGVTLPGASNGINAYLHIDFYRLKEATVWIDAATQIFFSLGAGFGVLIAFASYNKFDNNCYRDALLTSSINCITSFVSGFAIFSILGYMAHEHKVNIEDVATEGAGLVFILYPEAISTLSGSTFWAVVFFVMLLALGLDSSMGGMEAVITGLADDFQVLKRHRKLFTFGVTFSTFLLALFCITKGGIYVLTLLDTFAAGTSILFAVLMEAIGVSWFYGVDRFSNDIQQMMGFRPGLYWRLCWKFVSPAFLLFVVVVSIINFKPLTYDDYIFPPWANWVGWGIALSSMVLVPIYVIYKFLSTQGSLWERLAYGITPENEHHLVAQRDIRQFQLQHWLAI

[3] = molecular target: 5-hydroxytryptamine receptor 2C (Homo sapiens, UniProt P28335); test: Displacement of [3H]mesulergine from human recombinant 5-HT2C receptor after 1.5 hrs by microbeta scintillation counting analysis
Sequence of 5-hydroxytryptamine receptor 2C (P28335 whole entry): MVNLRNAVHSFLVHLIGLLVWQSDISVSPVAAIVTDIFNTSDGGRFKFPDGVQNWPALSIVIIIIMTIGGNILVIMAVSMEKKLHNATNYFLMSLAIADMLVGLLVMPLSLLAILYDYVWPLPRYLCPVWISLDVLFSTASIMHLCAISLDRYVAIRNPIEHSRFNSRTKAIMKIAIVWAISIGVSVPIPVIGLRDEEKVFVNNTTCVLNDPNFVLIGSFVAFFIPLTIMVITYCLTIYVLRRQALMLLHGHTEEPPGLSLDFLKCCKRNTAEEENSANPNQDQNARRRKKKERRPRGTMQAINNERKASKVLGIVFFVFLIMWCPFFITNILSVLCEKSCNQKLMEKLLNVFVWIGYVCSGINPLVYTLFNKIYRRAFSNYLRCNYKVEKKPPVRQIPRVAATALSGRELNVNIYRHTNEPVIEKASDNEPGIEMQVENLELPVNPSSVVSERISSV

[4] = molecular target: T3, 5-hydroxytryptamine receptor 2A (Homo sapiens, UniProt P28223); test: Displacement of [3H]ketanserin from human recombinant 5-HT2A receptor after 1.5 hrs by microbeta scintillation counting analysis
T3 sequence (P28223 whole entry): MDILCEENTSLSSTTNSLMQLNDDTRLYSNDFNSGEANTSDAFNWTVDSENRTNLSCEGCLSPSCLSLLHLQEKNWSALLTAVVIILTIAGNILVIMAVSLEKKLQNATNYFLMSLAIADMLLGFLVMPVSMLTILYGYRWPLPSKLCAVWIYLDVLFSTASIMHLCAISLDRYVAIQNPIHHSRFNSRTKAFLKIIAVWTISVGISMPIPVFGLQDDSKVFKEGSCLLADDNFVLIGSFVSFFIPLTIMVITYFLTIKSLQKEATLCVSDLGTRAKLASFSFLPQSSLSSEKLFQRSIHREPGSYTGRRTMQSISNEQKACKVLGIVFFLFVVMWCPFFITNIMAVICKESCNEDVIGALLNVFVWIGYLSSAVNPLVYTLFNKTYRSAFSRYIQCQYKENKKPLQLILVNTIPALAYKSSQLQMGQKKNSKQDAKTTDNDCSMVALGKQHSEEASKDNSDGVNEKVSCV

[5] = molecular target: Histamine H4 receptor (Homo sapiens) (UniProt Q9H3N8); test: Displacement of [3H]histamine from histamine H4 receptor at 10 uM after 1.5 hrs by microbeta scintillation counting analysis
[6] = molecular target: Histamine H3 receptor (Homo sapiens) (UniProt Q9Y5N1); test: Displacement of [3H]alpha-methylhistamine from human recombinant histamine H3 receptor at 10 uM after 1.5 hrs by microbeta scintillation counting analysis
Sequence of Histamine H3 receptor (Homo sapiens) (Q9Y5N1 whole entry): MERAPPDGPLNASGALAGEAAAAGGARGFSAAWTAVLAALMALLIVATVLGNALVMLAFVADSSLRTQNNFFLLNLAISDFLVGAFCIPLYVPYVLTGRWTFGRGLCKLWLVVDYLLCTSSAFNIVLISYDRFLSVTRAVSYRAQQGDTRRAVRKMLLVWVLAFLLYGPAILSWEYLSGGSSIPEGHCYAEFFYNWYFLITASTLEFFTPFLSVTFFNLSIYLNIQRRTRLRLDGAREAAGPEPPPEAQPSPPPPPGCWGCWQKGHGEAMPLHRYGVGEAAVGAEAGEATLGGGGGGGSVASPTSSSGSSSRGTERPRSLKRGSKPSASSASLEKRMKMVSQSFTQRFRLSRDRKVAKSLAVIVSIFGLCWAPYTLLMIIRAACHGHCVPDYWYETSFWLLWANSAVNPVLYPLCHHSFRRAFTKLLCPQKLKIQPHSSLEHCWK

Histamine H2 receptor = Histamine H2 receptor (Homo sapiens, UniProt P25021); test: Displacement of [3H]tiotidine from human recombinant histamine H2 receptor at 10 uM after 1.5 hrs by microbeta scintillation counting analysis
Histamine H1 receptor = Histamine H1 receptor (Homo sapiens, UniProt P35367); test: Displacement of [3H]pyrilamine from human recombinant histamine H1 receptor at 10 uM after 1.5 hrs by microbeta scintillation counting analysis
[7] = molecular target: Delta-type opioid receptor (Homo sapiens) (UniProt P41143); test: Displacement of [3H]DADLE from human recombinant delta-opioid receptor at 10 uM after 1.5 hrs by microbeta scintillation counting analysis
[8] = molecular target: Kappa-type opioid receptor (Rattus norvegicus) (UniProt P34975); test: Displacement of [3H]U69593 from rat kappa-opioid receptor at 10 uM after 1.5 hrs by microbeta scintillation counting analysis
[9] = molecular target: Muscarinic acetylcholine receptor M3 (Homo sapiens) (UniProt P20309); test: Displacement of [3H]QNB from human recombinant muscarinic M3 receptor at 10 uM after 1.5 hrs by microbeta scintillation counting analysis
Sequence of Muscarinic acetylcholine receptor M3 (Homo sapiens) (P20309 whole entry, looked up): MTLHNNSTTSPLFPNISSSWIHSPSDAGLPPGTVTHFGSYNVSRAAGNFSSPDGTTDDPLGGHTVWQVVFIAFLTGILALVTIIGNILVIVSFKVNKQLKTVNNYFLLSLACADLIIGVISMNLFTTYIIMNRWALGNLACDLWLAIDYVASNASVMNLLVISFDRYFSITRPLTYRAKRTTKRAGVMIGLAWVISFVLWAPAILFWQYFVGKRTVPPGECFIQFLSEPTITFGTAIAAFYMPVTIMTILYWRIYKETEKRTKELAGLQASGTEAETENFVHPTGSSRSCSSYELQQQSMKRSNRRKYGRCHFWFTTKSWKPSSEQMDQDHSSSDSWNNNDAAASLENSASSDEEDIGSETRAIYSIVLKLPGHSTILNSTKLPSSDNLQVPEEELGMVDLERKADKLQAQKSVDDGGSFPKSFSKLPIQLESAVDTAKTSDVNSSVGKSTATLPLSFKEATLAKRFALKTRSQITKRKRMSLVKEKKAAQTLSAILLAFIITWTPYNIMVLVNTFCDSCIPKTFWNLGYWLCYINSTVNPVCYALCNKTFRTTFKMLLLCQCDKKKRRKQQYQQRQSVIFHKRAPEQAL

[10] = molecular target: Muscarinic acetylcholine receptor M2 (Homo sapiens) (UniProt P08172); test: Displacement of [3H]QNB from human recombinant muscarinic M2 receptor at 10 uM after 1.5 hrs by microbeta scintillation counting analysis
[11] = molecular target: Muscarinic acetylcholine receptor M1 (Homo sapiens) (UniProt P11229); test: Displacement of [3H]QNB from human recombinant muscarinic M1 receptor at 10 uM after 1.5 hrs by microbeta scintillation counting analysis
[12] = molecular target: Beta-3 adrenergic receptor (Homo sapiens) (UniProt P13945); test: Displacement of [125I]Iodopindolol from beta 3 adrenergic receptor at 10 uM after 1.5 hrs by microbeta scintillation counting analysis
[13] = molecular target: Beta-2 adrenergic receptor (Homo sapiens, UniProt P07550); test: Displacement of [125I]Iodopindolol from beta 2 adrenergic receptor at 10 uM after 1.5 hrs by microbeta scintillation counting analysis
[14] = molecular target: Beta-1 adrenergic receptor (Homo sapiens) (UniProt P08588); test: Displacement of [125I]Iodopindolol from beta 1 adrenergic receptor at 10 uM after 1.5 hrs by microbeta scintillation counting analysis
[15] = molecular target: Alpha-2B adrenergic receptor (Homo sapiens) (UniProt P18089); test: Displacement of [3H]clonidine from human recombinant alpha 2B adrenergic receptor at 10 uM after 40 mins by microbeta scintillation counting analysis
[16] = molecular target: Alpha-2C adrenergic receptor (Homo sapiens) (UniProt P18825); test: Displacement of [3H]clonidine from alpha 2C adrenergic receptor at 10 uM after 40 mins by microbeta scintillation counting analysis
[17] = molecular target: Alpha-2A adrenergic receptor (Homo sapiens) (UniProt P08913); test: Displacement of […] from alpha 2A adrenergic receptor at 10 uM after 40 mins by microbeta scintillation counting analysis
[18] = molecular target: Alpha-1D adrenergic receptor (Homo sapiens) (UniProt P25100); test: Inhibitory activity against alpha 1D adrenergic receptor at 10 uM
[19] = molecular target: T1, Sodium-dependent dopamine transporter; test: Displacement of [3H]WIN35428 from human recombinant DAT at 10 uM after 1.5 hrs by microbeta scintillation counting analysis
[20] = molecular target: T2, Sodium-dependent noradrenaline transporter; test: Displacement of [3H]nisoxetine from human recombinant NET at 10 uM after 1.5 hrs by microbeta scintillation counting analysis
[21] = molecular target: Sodium-dependent serotonin transporter (Homo sapiens) (UniProt P31645); test: Displacement of [3H]citalopram from human recombinant SERT at 10 uM after 1.5 hrs by microbeta scintillation counting analysis
Sequence of Sodium-dependent serotonin transporter (Homo sapiens) (P31645 whole entry, looked up): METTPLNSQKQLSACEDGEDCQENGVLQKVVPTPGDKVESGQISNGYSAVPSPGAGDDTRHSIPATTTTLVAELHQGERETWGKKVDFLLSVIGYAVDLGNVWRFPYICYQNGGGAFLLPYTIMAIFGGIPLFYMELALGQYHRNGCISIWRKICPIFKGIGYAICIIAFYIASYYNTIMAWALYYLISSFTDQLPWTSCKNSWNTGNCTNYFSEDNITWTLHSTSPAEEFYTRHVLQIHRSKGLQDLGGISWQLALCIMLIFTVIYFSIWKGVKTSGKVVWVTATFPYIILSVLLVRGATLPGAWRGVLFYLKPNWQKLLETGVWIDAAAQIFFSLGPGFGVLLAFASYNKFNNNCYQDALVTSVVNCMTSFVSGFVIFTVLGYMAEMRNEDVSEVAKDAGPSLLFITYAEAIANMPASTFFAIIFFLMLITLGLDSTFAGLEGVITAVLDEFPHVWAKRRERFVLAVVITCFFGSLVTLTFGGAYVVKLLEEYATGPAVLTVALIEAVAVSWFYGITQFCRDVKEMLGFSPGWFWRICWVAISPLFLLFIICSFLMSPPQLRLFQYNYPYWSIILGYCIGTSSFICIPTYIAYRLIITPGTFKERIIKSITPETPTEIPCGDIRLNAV

Rattus norvegicus [22] = species: Rattus norvegicus; test: Inhibitory activity against benzodiazepine receptor in rat brain at 10 uM; format: tissue-based
[23] = molecular target: D(1B) dopamine receptor (Homo sapiens) (UniProt P21918); test: Displacement of [3H]SCH23390 from human recombinant D5 receptor at 10 uM after 1.5 hrs by microbeta scintillation counting analysis
[24] = molecular target: D(1A) dopamine receptor (Homo sapiens) (UniProt P21728); test: Displacement of [3H]SCH23390 from human recombinant D1 receptor at 10 uM after 1.5 hrs by microbeta scintillation counting analysis
Sequence of D(1A) dopamine receptor (Homo sapiens) (P21728 whole entry): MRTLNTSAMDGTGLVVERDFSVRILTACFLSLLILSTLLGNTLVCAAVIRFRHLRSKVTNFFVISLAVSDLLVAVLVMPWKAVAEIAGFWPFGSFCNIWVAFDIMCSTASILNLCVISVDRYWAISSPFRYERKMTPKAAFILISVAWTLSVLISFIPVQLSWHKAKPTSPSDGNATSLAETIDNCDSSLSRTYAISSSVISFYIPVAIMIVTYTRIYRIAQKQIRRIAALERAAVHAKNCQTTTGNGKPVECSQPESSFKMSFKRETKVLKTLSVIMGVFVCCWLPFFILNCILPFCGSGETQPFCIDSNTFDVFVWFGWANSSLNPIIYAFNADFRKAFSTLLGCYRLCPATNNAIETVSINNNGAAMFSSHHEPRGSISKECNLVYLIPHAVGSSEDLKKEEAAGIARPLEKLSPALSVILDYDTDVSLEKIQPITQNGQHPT

Rattus norvegicus [25] = species: Rattus norvegicus; test: Displacement of [3H]muscimol from GABAA receptor in rat brain membrane at 10 uM after 1.5 hrs by microbeta scintillation counting analysis; format: cell membranes
[26] = molecular target: 5-hydroxytryptamine receptor 7 (Homo sapiens) (UniProt P34969); test: Displacement of [3H]LSD from human recombinant 5-HT7 receptor at 10 uM after 1.5 hrs by microbeta scintillation counting analysis
Sequence of 5-hydroxytryptamine receptor 7 (Homo sapiens) (P34969 whole entry): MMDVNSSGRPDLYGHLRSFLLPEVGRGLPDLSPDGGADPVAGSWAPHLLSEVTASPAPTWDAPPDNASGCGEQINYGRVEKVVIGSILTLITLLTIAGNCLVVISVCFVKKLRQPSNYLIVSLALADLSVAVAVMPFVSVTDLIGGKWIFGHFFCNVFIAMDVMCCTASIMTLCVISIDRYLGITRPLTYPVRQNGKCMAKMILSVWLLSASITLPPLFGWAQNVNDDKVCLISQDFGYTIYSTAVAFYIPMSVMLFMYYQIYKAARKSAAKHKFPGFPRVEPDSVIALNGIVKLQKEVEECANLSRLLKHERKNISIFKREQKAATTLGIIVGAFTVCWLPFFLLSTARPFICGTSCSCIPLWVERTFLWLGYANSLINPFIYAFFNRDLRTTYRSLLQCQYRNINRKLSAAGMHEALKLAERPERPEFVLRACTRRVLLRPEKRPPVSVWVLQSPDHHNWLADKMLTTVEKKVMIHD

[27] = molecular target: 5-hydroxytryptamine receptor 6 (Homo sapiens, UniProt P50406); test: Displacement of [3H]LSD from human recombinant 5-HT6 receptor at 10 uM after 1.5 hrs by microbeta scintillation counting analysis
[28] = molecular target: 5-hydroxytryptamine receptor 5A (Homo sapiens) (UniProt P47898); test: Displacement of [3H]LSD from human recombinant 5-HT5A receptor at 10 uM after 1.5 hrs by microbeta scintillation counting analysis
[29] = molecular target: 5-hydroxytryptamine receptor 3A (Homo sapiens) (UniProt P46098); test: Displacement of [3H]LY-278584 from human recombinant 5-HT3 receptor at 10 uM after 1.5 hrs by microbeta scintillation counting analysis
[30] = molecular target: 5-hydroxytryptamine receptor 2C (Homo sapiens) (UniProt P28335); test: Displacement of [3H]mesulergine from human recombinant 5-HT2C receptor at 10 uM after 1.5 hrs by microbeta scintillation counting analysis
Sequence of 5-hydroxytryptamine receptor 2C (Homo sapiens) (P28335 whole entry): as the sequence (P28335 whole entry) above

[31] = molecular target: 5-hydroxytryptamine receptor 2B (Homo sapiens, UniProt P41595); test: Displacement of [3H]LSD from human recombinant 5-HT2B receptor at 10 uM after 1.5 hrs by microbeta scintillation counting analysis
[32] = molecular target: T3, 5-hydroxytryptamine receptor 2A; test: Displacement of [3H]ketanserin from human recombinant 5-HT2A receptor at 10 uM after 1.5 hrs by microbeta scintillation counting analysis
[33] = Displacement of [3H]DTG from sigma 2 receptor in rat PC12 cell membrane after 2 hrs by microbeta scintillation counting analysis; format: cell membranes; details: pc-12

T1 sequence (Q01959 whole entry): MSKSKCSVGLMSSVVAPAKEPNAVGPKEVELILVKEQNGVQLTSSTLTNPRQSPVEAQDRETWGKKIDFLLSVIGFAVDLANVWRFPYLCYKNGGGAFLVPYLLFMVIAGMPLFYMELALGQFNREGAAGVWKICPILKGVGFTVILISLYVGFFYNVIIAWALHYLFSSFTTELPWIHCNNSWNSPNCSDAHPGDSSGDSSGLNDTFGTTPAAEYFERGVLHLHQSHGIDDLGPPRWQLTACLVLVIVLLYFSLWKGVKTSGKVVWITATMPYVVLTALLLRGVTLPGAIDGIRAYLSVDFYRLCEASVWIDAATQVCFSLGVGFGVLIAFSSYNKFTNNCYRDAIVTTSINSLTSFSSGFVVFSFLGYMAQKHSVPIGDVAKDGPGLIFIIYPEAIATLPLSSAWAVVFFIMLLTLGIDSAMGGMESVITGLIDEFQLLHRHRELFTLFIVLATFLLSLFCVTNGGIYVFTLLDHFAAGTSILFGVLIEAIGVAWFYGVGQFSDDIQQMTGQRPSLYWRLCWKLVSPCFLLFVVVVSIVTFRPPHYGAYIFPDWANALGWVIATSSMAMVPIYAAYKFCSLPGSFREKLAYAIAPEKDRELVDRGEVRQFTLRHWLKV

| Structure (SMILES) | Ki [1] | Ki [2] | Ki [3] | Ki [4] | Efficacy [5] | Efficacy [6] | Efficacy (Histamine H2 receptor) | Efficacy (Histamine H1 receptor) | Efficacy [7] | Efficacy [8] | Efficacy [9] | Efficacy [10] | Efficacy [11] | Efficacy [12] | Efficacy [13] | Efficacy [14] | Efficacy [15] | Efficacy [16] | Efficacy [17] | Efficacy [18] | also measured |
| --- | --- | --- | --- | --- | --- | --- | --- | --- | --- | --- | --- | --- | --- | --- | --- | --- | --- | --- | --- | --- | --- |
| c1ccc(OCc2cc(OC[C@@H]3CCCN3)no2)cc1 | 373 nM | 203 nM | > 10000 nM | 4410 nM | 26.5% | -4.9% | 57.2% | 55% | 10.3% | 9.4% | 12.2% | 11.8% | 4.4% | 7.2% | 55.6% | -1.2% | 44.4% | 39.3% | 36.1% | 25.2% | Efficacy [19]: 59.4%; Efficacy [20]: 95.9%; Efficacy [21]: 3.4%; Efficacy (Rattus norvegicus [22]): 27.1%; Efficacy [23]: 36.5%; Efficacy [24]: -5.7%; Efficacy (Rattus norvegicus [25]): 5.7%; Efficacy [26]: 16.9%; Efficacy [27]: 28.3%; Efficacy [28]: 32.4%; Efficacy [29]: 7%; Efficacy [30]: 76.9%; Efficacy [31]: 54.5%; Efficacy [32]: 68%; Ki [33]: 1310 nM |
| c1ccc(OCc2cc(OC[C@@H]3CCN3)no2)cc1 | 24 nM | 191 nM | > 10000 nM | 6400 nM | 42.6% | 4.7% | 40.9% | 49.2% | 4.9% | 6.7% | 47.6% | 12.6% | 5.7% | -1.5% | 29.4% | 22.1% | 34.8% | 43.8% | 17.4% | 22.4% | Efficacy [19]: 91.8%; Efficacy [20]: 97.2%; Efficacy [21]: 8.8%; Efficacy (Rattus norvegicus [22]): 23.5%; Efficacy [23]: 4.9%; Efficacy [24]: 6.1%; Efficacy (Rattus norvegicus [25]): 2.5%; Efficacy [26]: 42.4%; Efficacy [27]: 51.6%; Efficacy [28]: 15.2%; Efficacy [29]: -0.1%; Efficacy [30]: 68.8%; Efficacy [31]: 43.3%; Efficacy [32]: 77.9%; Ki [33]: 1470 nM |
